This assay deals with T1, human PAR4 (Homo sapiens, UniProt Q96RI0).
T1 construct: expressed in transfected cells; host or cells: HEK293 PAR4 Clone 1.2A (BMS Arctic ID 383940)
T1 sequence (Q96RI0 18-385): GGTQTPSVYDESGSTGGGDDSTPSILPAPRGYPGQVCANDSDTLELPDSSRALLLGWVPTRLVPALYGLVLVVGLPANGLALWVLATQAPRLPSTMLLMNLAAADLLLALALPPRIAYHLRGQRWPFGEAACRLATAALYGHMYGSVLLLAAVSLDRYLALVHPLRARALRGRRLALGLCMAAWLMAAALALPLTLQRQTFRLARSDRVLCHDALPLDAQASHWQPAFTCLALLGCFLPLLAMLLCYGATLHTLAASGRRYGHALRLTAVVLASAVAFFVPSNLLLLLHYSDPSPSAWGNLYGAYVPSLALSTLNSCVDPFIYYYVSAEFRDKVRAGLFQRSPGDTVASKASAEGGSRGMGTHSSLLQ
The assay can be described thus: PAR4 FLIPR assay: antagonism of agonist-peptide-induced calcium mobilization in PAR4-expressing HEK293 cells. Type of assay: cell-based. The settings on record: H-Ala-Phe(4-F)-[…]NH2-induced intracellular calcium mobilization, 11-point curves. (In general: Calcium assays in cells follow changes in intracellular calcium, usually with a dye or a luminescent sensor.)

The term IC50 denotes the concentration needed to halve the response being measured. For the molecule `COC(=O)c1cnc2c(-c3cc4ccccc4o3)cc(C)cc2n1` [Example 176, methyl 5-(benzofuran-2-yl)-7-methylquinoxaline-2-carboxylate], the IC50 is 980 nM.
Next, `COc1cnc2c(-c3cc4ccccc4o3)cc(C)cc2c1` [Example 177, 8-(benzofuran-2-yl)-3-methoxy-6-methylquinoline]: 190 nM; `Cc1cc(-c2nc3c(s2)CCCC3)c2ncc(OC(F)F)nc2c1` [Example 178, 2-(2-(difluoromethoxy)-7-methylquinoxalin-5-yl)-4,5,6,7-tetrahydrobenzo[d]thiazole]: 13 nM; `COc1cnc2c(-c3nc4c(C)cc(OC)nc4s3)cc(C)cc2n1` [Example 179, 5-methoxy-2-(2-methoxy-7-methylquinoxalin-5-yl)-7-methylthiazolo[5,4-b]pyridine]: 18 nM.
For `COCc1cnc2c(-c3nc4cc(F)c(OC)nc4s3)cc(C)cc2n1` [Example 180, 6-fluoro-5-methoxy-2-(2-(methoxymethyl)-7-methylquinoxalin-5-yl)thiazolo[5,4-b] pyridine] the value was 2.7 nM; for `COCc1cnc2c(-c3nc4c(C)cc(OC)nc4s3)cc(C)cc2n1` [Example 181, 5-methoxy-2-(2-(methoxymethyl)-7-methylquinoxalin-5-yl)-7-methylthiazolo[5,4-b] pyridine], 1.2 nM.
Regarding `COc1cnc2c(-c3nc4cc(F)c(OC)nc4s3)cc(C)cc2n1` [Example 182, 6-fluoro-5-methoxy-2-(2-methoxy-7-methylquinoxalin-5-yl)thiazolo[5,4-b]pyridine], the IC50 turned out to be 22 nM.
In the case of `COCc1cnc2c(-c3nc4c(C)cc(OC)cc4s3)cc(C)cc2n1` [Example 183, 6-methoxy-2-(2-(methoxymethyl)-7-methylquinoxalin-5-yl)-4-methylbenzo[d]thiazole], the IC50 stood at 0.6 nM.
Next, `COC(C)c1cnc2c(-c3cc4ccccc4o3)cc(C)cc2n1` (centres unmarked) [Example 184, 5-(benzofuran-2-yl)-2-(1-methoxyethyl)-7-methylquinoxaline]: 2300 nM; `COCc1cnc2c(-c3nc4c(C)cc(OC)cc4s3)cc(C)cc2c1` [Example 185, 6-methoxy-2-(3-(methoxymethyl)-6-methylquinolin-8-yl)-4-methylbenzo[d]thiazole]: 6.5 nM; `COc1cc(C)c2nc(-c3cc(C)cc4nc(C(F)(F)OC)cnc34)sc2c1` [Example 186, 2-(2-(difluoro(methoxy)methyl)-7-methylquinoxalin-5-yl)-6-methoxy-4-methylbenzo[d]thiazole]: 17 nM.
For `COc1cc(C)c2nc(-c3cc(C)cc4nc(COc5ccccc5)cnc34)sc2c1` [Example 187, 6-methoxy-4-methyl-2-(7-methyl-2-(phenoxymethyl)quinoxalin-5-yl)benzo[d]thiazole] the value was 390 nM; for `COc1cc(C)c2nc(-c3cc(C)cc4nc(CN(C)C)cnc34)sc2c1` [Example 188, 1-(5-(6-methoxy-4-methylbenzo[d]thiazol-2-yl)-7-methylquinoxalin-2-yl)-N,N-dimethylmethanamine], 580 nM; for `CCOCc1cnc2c(-c3nc4c(C)cc(OC)cc4s3)cc(C)cc2n1` [Example 189, 2-(2-(ethoxymethyl)-7-methylquinoxalin-5-yl)-6-methoxy-4-methylbenzo[d]thiazole], 140 nM.
Next, `COCc1cnc2c(-c3nc4c(C)cc(OC)cc4s3)cc(C)cc2c1OC` [Example 190, 6-methoxy-2-(4-methoxy-3-(methoxymethyl)-6-methylquinolin-8-yl)-4-methylbenzo[d]thiazole]: 1700 nM.
As for `COCc1cnc2c(-c3nc4c(C)cc(Cl)nc4s3)cc(C)cc2n1` [Example 191, 5-chloro-2-(2-(methoxymethyl)-7-methylquinoxalin-5-yl)-7-methylthiazolo[5,4-b] pyridine], the IC50 was determined as 6.4 nM.
For `COCc1cnc2c(-c3nc4c(CO)cc(OC)nc4s3)cc(C)cc2n1` [Example 192, (5-methoxy-2-(2-(methoxymethyl)-7-methylquinoxalin-5-yl)thiazolo[5,4-b]pyridin-7-yl) methanol] the value was 2.8 nM.
Next, `COCc1cnc2c(-c3nc4c(C)cc(OCCNS(=O)(=O)c5ccc(F)cc5)nc4s3)cc(C)cc2n1` [Example 193, 4-fluoro-N-(2-((2-(2-(methoxymethyl)-7-methylquinoxalin-5-yl)-7-methylthiazolo[5,4-b]pyridin-5-yl)oxy)ethyl)benzenesulfonamide]: 1.2 nM.
Next, `COc1cnc2c(-c3nc4c(C)cc(OCCNS(=O)(=O)c5ccc(F)cc5)nc4s3)cc(C)cc2n1` [Example 194, 4-fluoro-N-(2-((2-(2-methoxy-7-methylquinoxalin-5-yl)-7-methylthiazolo[5,4-b]pyridin-5-yl)oxy)ethyl)benzenesulfonamide]: 2.5 nM.
For `COCc1cnc2c(-c3cc4ccccc4o3)cc(C)cc2n1` [Example 195, 5-(benzofuran-2-yl)-2-(methoxymethyl)-7-methylquinoxaline], the IC50 was 32 nM.
For `COc1cnc2c(-c3nc4c(C)cc(OCCOC(=O)Nc5cccnc5)nc4s3)cc(C)cc2n1` [Example 196, 2-((2-(2-methoxy-7-methylquinoxalin-5-yl)-7-methylthiazolo[5,4-b]pyridin-5-yl)oxy)ethyl pyridin-3-ylcarbamate] the value was 2.3 nM; for `COc1cnc2c(-c3nc4c(C)cc(OCCOC(=O)Nc5ccc(C#N)nc5)nc4s3)cc(C)cc2n1` [Example 197, 2-((2-(2-methoxy-7-methylquinoxalin-5-yl)-7-methylthiazolo[5,4-b]pyridin-5-yl)oxy)ethyl (6-cyanopyridin-3-yl)carbamate], 1.3 nM; for `COc1cnc2c(-c3nc4cc(F)c(OCCOC(=O)Nc5ccc(C#N)nc5)nc4s3)cc(C)cc2n1` [Example 198, 2-((6-fluoro-2-(2-methoxy-7-methylquinoxalin-5-yl)thiazolo[5,4-b]pyridin-5-yl)oxy)ethyl (6-cyanopyridin-3-yl)carbamate], 0.6 nM.
For `COc1cnc2c(-c3nc4c(C)cc(OCCNS(=O)(=O)c5ccc(F)cc5)cc4s3)cc(Cl)cc2n1` [Example 199, N-(2-((2-(7-chloro-2-methoxyquinoxalin-5-yl)-4-methylbenzo[d]thiazol-6-yl)oxy)ethyl)-4-fluorobenzenesulfonamide] the value was 2.5 nM.
For `COCc1cnc2c(-c3nc4c(C)cc(OCCNS(=O)(=O)c5ccc(F)cc5)cc4s3)cc(Cl)cc2n1` [Example 200, N-(2-((2-(7-chloro-2-(methoxymethyl)quinoxalin-5-yl)-4-methylbenzo[d]thiazol-6-yl)oxy)ethyl)-4-fluorobenzenesulfonamide] the value was 1.6 nM.
As to `COCc1cnc2c(-c3nc4ccc(OC)cc4s3)cc(Cl)cc2n1` [Example 201, 2-(7-chloro-2-(methoxymethyl)quinoxalin-5-yl)-6-methoxybenzo[d]thiazole], the IC50 is 1.3 nM.
Turning to `COCc1cnc2c(-c3nc4ccc(OC)cc4s3)cc(Cl)cc2n1` [Example 202, 2-(7-chloro-2-(methoxymethyl)quinoxalin-5-yl)-6-methoxybenzo[d]thiazole], the IC50 came out at 0.9 nM.
Next, `COCc1cnc2c(-c3nc4c(C)cc(OC)cc4s3)cc(OC(F)(F)F)cc2n1` [Example 203, 6-methoxy-2-(2-(methoxymethyl)-7-(trifluoromethoxy)quinoxalin-5-yl)-4-methylbenzo[d] thiazole]: 4.1 nM; `COCc1cnc2c(-c3nc4c(C)cc(OC)cc4s3)cc(C(=O)OC)cc2n1` [Example 204, methyl 8-(6-methoxy-4-methylbenzo[d]thiazol-2-yl)-3-(methoxymethyl) quinoxaline-6-carboxylate]: 3.1 nM.
Next, `COCc1cnc2c(-c3nc4c(C)cc(OCCNS(=O)(=O)c5ccc(F)cc5)cc4s3)cc(C(=O)OC)cc2n1` [Example 205, methyl 8-(6-(2-(4-fluorophenylsulfonamido)ethoxy)-4-methylbenzo[d]thiazol-2-yl)-3-(methoxymethyl)quinoxaline-6-carboxylate]: 51 nM; `COCc1cnc2c(-c3nc4c(C)cc(OC)cc4s3)cc(F)cc2n1` [Example 206, 2-(7-fluoro-2-(methoxymethyl)quinoxalin-5-yl)-6-methoxy-4-methylbenzo[d]thiazole]: 0.7 nM; `COCc1cnc2c(-c3nc4c(C)cc(OCCNS(=O)(=O)c5ccc(F)cc5)cc4s3)cc(F)cc2n1` [Example 207, 4-fluoro-N-(2-((2-(7-fluoro-2-(methoxymethyl)quinoxalin-5-yl)-4-methylbenzo[d]thiazol-6-yl)oxy)ethyl)benzenesulfonamide]: 0.9 nM.
Next, `COCc1cnc2c(-c3nc4c(C)cc(OC)cc4s3)cc(C(F)(F)F)cc2n1` [Example 208, 6-methoxy-2-(2-(methoxymethyl)-7-(trifluoromethyl)quinoxalin-5-yl)-4-methylbenzo[d]thiazole]: 1.1 nM; `COCc1cnc2c(-c3nc4c(C)cc(OCCNS(=O)(=O)c5ccc(F)cc5)cc4s3)cc(C(F)(F)F)cc2n1` [Example 209, 4-fluoro-N-(2-((2-(2-(methoxymethyl)-7-(trifluoromethyl)quinoxalin-5-yl)-4-methylbenzo[d]thiazol-6-yl)oxy)ethyl)benzenesulfonamide]: 1.1 nM; `COCc1cnc2c(-c3nc4c(Cl)cc(OC)cc4s3)cc(Cl)cc2n1` [Example 210, 4-chloro-2-(7-chloro-2-(methoxymethyl)quinoxalin-5-yl)-6-methoxybenzo[d]thiazole]: 0.3 nM.

Source of the values: patent US12060347B2 (BRISTOL-MYERS SQUIBB COMPANY, priority 2016, dated 2024).
